Tests used:
[1] = test system: Salmonella typhimurium TA98; experiment: Mini Ames experiment, strain TA98; assay type: cell-based
Procedure: (§1) Histidine auxotrophic strains of Salmonella typhimurium were cultured in a special medium with quite a low content of histidine. The strains were difficult to divide due to lack of nutrition. If a test compound has mutagenicity, a large number of cells will undergo reverse mutation, synthesizing histidine by themselves and developing into colonies visible to the naked eye. In view of the close relationship between mutagenicity and carcinogenesis of chemicals, this method has been widely used in screening carcinogens. Some chemicals need metabolic activation to induce mutagenicity. Mammalian microsomal enzyme S9 can be added into the test system to eliminate the influence of metabolic activation on generation of mutagenicity.
(§2) […] Mini Ames test with compound 50561

[2] = test system: Salmonella typhimurium TA100; experiment: Mini Ames experiment, strain TA100; assay type: cell-based
Procedure: as §1, §2

[3] = test system: Drosophilae containing and expressing human Abeta42 gene; experiment: Pavlov's olfactory-related instantaneous memory test in Drosophila; assay type: in vivo; settings: test medicament 100 μM, 50 μL per 100 drosophilae, 7 consecutive days; FIG. 1 and FIG. 2
Source text: Drosophila has a classical learning and memory paradigm, known as Pavlov's olfactory-related instantaneous memory. During the training program, a group of about 100 drosophilae were exposed sequentially to two odors, i.e., 3-octanol and 4-methylcyclohexanol, each odor for 60 seconds, and to fresh air for 45 seconds therebetween. During exposure to the first odor, the drosophilae were electrocuted on their feet (1.5-second pulses at 3.5-second intervals, 60V), while no electrocution was exerted during exposure to the second odor. In order to detect “instantaneous memory” (also known as “learning”), drosophilae were transferred to the selection area in the T maze immediately after training and forced to choose between the two odors. The drosophilae in each T-maze arm were then captured, anesthetized, and counted. The behavior index was calculated from the distribution of drosophilae in the T maze. […] In each experiment, the age of the control group was matched with that of the experimental group.
Pharmacodynamic evaluation of the candidate compounds: Drosophilae containing and expressing human Abeta42 gene were selected as a diseased control, and drosophilae containing but not expressing human Abeta42 gene were selected as a healthy control. The day after emergence of the drosophilae, male drosophilae were selected and fed. Starting from the third day, drosophilae were fed with a test medicament (100 μM, 50 μL per 100 drosophilae) for 7 consecutive days, 4 hours each day. The above memory test was performed on the drosophilae on the tenth day.

[4] = test system: Drosophilae containing and expressing human Abeta42 gene; experiment: as above; assay type: in vivo; settings: FIG. 3; with increase of dosage; compared with positive compound memantine hydrochloride
[5] = TA98, With Metabolic Activation, control article 0.4 μg per well
[6] = TA100, With Metabolic Activation, control article 0.4 μg per well
[7] = TA98, Without Metabolic Activation, control article 2.0 μg per well
[8] = TA100, Without Metabolic Activation, control article 0.2 μg per well

SMILES: Nc1ccc2cc3ccccc3cc2c1 [Compound 2-AA, reference compound]
- Mean Revertants Per Well [1, 5]: 297.67
- Ratio Treated/Solvent [1, 5]: 35.72
- Mean Revertants Per Well [2, 6]: 317.67
- Ratio Treated/Solvent [2, 6]: 9.72

SMILES: O=[N+]([O-])c1ccc2c(c1)Cc1ccccc1-2 [Compound 2-NF, reference compound]
- Mean Revertants Per Well [1, 7]: 421.00
- Ratio Treated/Solvent [1, 7]: 61.61

SMILES: O=C1C=C(OCc2ccccc2F)[C@H](Cc2ccccc2)N1 [Compound 51121]
- ability to improve the learning and memory of drosophilae [3]: best ability to improve the learning and memory of drosophilae
- dose-effect relationship to improve memory of drosophilae [4]: eventually reaches or exceeds the level of the activity of the positive compound memantine hydrochloride

SMILES: O=C1C=C(OCc2cccs2)[C@H](Cc2ccccc2)N1 [Compound 51151]
- ability to improve the learning and memory of drosophilae [3]: best ability to improve the learning and memory of drosophilae
- dose-effect relationship to improve memory of drosophilae [4]: eventually reaches or exceeds the level of the activity of the positive compound memantine hydrochloride

SMILES: O=C1C=C(OCc2cccc3ccccc23)[C@H](Cc2ccccc2)N1 [Compound 51311]
- ability to improve the learning and memory of drosophilae [3]: best ability to improve the learning and memory of drosophilae
- dose-effect relationship to improve memory of drosophilae [4]: eventually reaches or exceeds the level of the activity of the positive compound memantine hydrochloride

SMILES: CC(=O)Oc1ccc(COC2=CC(=O)N[C@H]2Cc2ccccc2)cc1 [Compound 51351]
- ability to improve the learning and memory of drosophilae [3]: best ability to improve the learning and memory of drosophilae
- dose-effect relationship to improve memory of drosophilae [4]: eventually reaches or exceeds the level of the activity of the positive compound memantine hydrochloride

SMILES: COc1ccc(C[C@@H]2NC(=O)C=C2OCc2ccc(OC(C)=O)cc2)cc1 [Compound 60111]
- ability to improve the learning and memory of drosophilae [3]: quite a good ability to improve learning and memory of drosophilae

SMILES: [N-]=[N+]=[N-].[Na+] [SA, reference compound]
- Mean Revertants Per Well [2, 8]: 195.33
- Ratio Treated/Solvent [2, 8]: 7.92

Reference: patent publication US11130733B2, “4-OXO-alkylated tetramic acid compound, preparation method and use thereof” (BEIJING JOEKAI BIOTECH. LLC, priority 2017, dated 2021)
